Test results as given in ChEMBL document CHEMBL1143663, “Brucella suis histidinol dehydrogenase: synthesis and inhibition studies of a series of substituted benzylic ketones derived from histidine” (Bioorg Med Chem, 2007).

T1: Histidinol dehydrogenase (Brucella suis biovar 1 (strain 1330), UniProt Q8G2R2)
T1 sequence (Q8G2R2 whole entry): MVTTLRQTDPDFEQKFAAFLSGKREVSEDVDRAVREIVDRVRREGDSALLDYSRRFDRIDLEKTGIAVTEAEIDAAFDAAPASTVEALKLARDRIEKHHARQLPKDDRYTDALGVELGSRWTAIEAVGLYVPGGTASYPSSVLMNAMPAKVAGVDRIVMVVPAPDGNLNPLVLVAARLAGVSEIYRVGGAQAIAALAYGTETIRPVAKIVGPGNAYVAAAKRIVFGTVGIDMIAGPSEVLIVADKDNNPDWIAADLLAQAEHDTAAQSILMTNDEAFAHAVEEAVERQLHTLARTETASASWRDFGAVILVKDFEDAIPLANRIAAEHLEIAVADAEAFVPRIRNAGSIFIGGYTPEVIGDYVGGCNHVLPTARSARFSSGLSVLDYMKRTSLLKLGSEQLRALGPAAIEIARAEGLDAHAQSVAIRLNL

B1: Histidinol dehydrogenase (Brucella suis biovar 1 (strain 1330)), Q8G2R2 (protein)
chain: T1 sequence (Q8G2R2 whole entry)

Legend:
Histidinol dehydrogenase = biological target: T1, Histidinol dehydrogenase; assay: Inhibition of Brucella suis histidinol dehydrogenase
[1] = substrate: N[C@H](CO)Cc1c[nH]cn1; assay: Activity of Brucella suis histidinol dehydrogenase

Row | Molecule | IC50 (Histidinol dehydrogenase) [nM] | Km [1] [µM]
1 | N[C@@H](Cc1c[nH]cn1)C(=O)Cc1ccc(-c2ccccc2)cc1 | 12.5 | 
2 | N[C@@H](Cc1c[nH]cn1)C(=O)Cc1c(F)c(F)c(F)c(F)c1F | 70 | 
3 | N[C@@H](Cc1c[nH]cn1)C(=O)Cc1ccccc1 | 40 | 
4 | COc1ccc(CC(=O)[C@@H](N)Cc2c[nH]cn2)cc1 | 150 | 
5 | Cc1ccc(CC(=O)[C@@H](N)Cc2c[nH]cn2)cc1 | 15 | 
6 | N[C@@H](Cc1c[nH]cn1)C(=O)Cc1ccc(Cl)cc1 | 12 | 
7 | N[C@@H](Cc1c[nH]cn1)C(=O)Cc1cccc2ccccc12 | 200 | 
8 | N[C@@H](Cc1c[nH]cn1)C(=O)Cc1ccc(F)cc1F | 10 | 
9 | N[C@@H](Cc1c[nH]cn1)C(=O)Cc1ccc2c(c1)OCO2 | 25 | 
10 | N[C@@H](Cc1c[nH]cn1)C(=O)Cc1ccc(Oc2ccccc2)cc1 | 16 | 
11 | N[C@@H](Cc1c[nH]cn1)C(=O)Cc1ccc(Cl)c(Cl)c1 | 20 | 
12 | N[C@@H](Cc1c[nH]cn1)C(=O)Cc1ccc(F)cc1 | 15 | 
13 | N[C@@H](Cc1c[nH]cn1)C(=O)Cc1ccc2ccccc2c1 | 14.5 | 
14 | N[C@@H](Cc1c[nH]cn1)C(=O)Cc1ccc(Br)cc1 | 6 | 
15 | N[C@@H](Cc1c[nH]cn1)C(=O)Cc1ccc(OCc2ccccc2)cc1 | 3 | 
16 | B1 |  | 12
